{"source": "patent US4983596A", "about": "“3-pyrrolidinylthio-1-azabicyclo[3.2.0]-hept-2-ene-2-carboxylic acid derivatives and their preparation” (Fujisawa Pharmaceutical Company, Ltd., priority 1988, dated 1991)", "test_system": "P. aeruginosa 26", "assay": "in vitro Antimicrobial Activity, two-fold agar-plate dilution method (MIC)", "assay_type": "cell-based", "conditions": "Pseudomonas aeruginosa; Test strain P. aeruginosa 26; heart infusion agar; 10^6 viable cells per ml; incubation at 37° C. for 20 hours; read-out: MIC (minimal inhibitory concentration)", "protocol": "in vitro Antimicrobial Activity\nin vitro Antimicrobial Activity was determined by the two-fold agar-plate dilution method as described blow. […]\nThe product of Example (2-1)."}
{"smiles": "C[C@@H](O)[C@H]1C(=O)N2C(C(=O)O)=C(S[C@@H]3CN[C@H](COCCF)C3)[C@H](C)[C@H]12", "note": "[Example (2-1), (4R,5S,6S)-3-[(2S,4S)-2-(2-fluoroethyloxymethyl)pyrrolidin-4-yl]thio-6-[(1R)-1-hydroxyethyl]-4-methyl-7-oxo-1-azabicyclo[3.2.0]hept-2-ene-2-carboxylic acid]", "values": [{"measurement": "MIC", "value": 0.39, "unit": "µg/mL"}]}
